Laboratory results as given in ChEMBL document CHEMBL1142021, “Aglycon specificity profiling of alpha-glucosidases using synthetic probes” (Bioorg Med Chem Lett, 2005).

Key:
[1] = molecular target: T1, Alpha-glucosidase (Apis mellifera, UniProt Q17058); assay: Inhibition of family 13 alpha-glucosidase isoform I from honey bee at 1 umol/mL
T1 sequence (Q17058 whole entry): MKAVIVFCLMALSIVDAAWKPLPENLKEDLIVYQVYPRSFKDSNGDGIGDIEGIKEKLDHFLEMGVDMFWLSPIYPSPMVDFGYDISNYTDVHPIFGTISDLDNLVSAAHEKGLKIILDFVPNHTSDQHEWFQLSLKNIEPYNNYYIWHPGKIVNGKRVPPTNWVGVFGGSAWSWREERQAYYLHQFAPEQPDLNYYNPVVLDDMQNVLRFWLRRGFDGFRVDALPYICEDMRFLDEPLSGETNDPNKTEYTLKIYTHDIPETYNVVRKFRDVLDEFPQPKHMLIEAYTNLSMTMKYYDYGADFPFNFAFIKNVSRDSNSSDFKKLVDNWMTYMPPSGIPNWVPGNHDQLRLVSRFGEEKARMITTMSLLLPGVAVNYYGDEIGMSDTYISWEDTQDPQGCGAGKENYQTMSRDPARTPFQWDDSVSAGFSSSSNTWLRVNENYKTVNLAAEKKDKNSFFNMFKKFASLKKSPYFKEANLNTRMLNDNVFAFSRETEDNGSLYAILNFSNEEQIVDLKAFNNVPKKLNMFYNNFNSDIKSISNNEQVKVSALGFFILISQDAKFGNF

[2] = organism: Homo sapiens; assay: Inhibition of Glucosidase 2 at 12 umol/mL
[3] = molecular target: T2, Alpha-glucosidase (Apis mellifera) (UniProt Q17058); assay: Inhibition of family 13 alpha-glucosidase isoform II from honey bee; conditions: concentration not given here
T2 sequence (whole entry): T1 sequence (Q17058 whole entry)

[4] = molecular target: T3, Mannosyl-oligosaccharide glucosidase (Homo sapiens) (UniProt Q13724); assay: Inhibition of Glucosidase 1(of Endoplasmic reticulum processing alpha-glucosidase) at 2 umol/mL
T3 sequence (whole entry): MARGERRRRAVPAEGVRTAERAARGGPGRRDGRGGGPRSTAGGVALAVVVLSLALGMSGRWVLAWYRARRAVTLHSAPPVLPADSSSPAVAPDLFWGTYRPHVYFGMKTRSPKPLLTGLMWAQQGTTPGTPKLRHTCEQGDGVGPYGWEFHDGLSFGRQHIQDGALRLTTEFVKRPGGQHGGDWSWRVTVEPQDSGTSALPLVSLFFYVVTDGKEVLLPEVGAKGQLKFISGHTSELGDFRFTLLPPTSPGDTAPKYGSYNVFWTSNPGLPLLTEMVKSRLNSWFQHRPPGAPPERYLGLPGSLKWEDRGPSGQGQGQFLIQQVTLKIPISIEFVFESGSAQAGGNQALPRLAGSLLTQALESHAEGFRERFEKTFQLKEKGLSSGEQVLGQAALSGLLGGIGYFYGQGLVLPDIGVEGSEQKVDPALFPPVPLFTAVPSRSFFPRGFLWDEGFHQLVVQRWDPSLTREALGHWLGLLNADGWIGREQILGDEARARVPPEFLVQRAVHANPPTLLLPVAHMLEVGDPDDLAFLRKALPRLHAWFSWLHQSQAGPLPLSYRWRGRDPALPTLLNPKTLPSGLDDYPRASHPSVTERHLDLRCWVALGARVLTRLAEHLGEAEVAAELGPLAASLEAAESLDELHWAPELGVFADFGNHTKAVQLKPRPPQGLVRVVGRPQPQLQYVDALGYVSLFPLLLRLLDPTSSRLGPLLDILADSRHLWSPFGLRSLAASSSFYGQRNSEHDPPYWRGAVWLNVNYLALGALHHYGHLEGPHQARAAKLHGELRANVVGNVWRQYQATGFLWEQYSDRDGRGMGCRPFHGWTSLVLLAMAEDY

[5] = molecular target: T4, Lysosomal alpha-mannosidase (Homo sapiens) (UniProt O00754); assay: Inhibition of alpha-Mannosidase; conditions: concentration not given here
T4 sequence (whole entry): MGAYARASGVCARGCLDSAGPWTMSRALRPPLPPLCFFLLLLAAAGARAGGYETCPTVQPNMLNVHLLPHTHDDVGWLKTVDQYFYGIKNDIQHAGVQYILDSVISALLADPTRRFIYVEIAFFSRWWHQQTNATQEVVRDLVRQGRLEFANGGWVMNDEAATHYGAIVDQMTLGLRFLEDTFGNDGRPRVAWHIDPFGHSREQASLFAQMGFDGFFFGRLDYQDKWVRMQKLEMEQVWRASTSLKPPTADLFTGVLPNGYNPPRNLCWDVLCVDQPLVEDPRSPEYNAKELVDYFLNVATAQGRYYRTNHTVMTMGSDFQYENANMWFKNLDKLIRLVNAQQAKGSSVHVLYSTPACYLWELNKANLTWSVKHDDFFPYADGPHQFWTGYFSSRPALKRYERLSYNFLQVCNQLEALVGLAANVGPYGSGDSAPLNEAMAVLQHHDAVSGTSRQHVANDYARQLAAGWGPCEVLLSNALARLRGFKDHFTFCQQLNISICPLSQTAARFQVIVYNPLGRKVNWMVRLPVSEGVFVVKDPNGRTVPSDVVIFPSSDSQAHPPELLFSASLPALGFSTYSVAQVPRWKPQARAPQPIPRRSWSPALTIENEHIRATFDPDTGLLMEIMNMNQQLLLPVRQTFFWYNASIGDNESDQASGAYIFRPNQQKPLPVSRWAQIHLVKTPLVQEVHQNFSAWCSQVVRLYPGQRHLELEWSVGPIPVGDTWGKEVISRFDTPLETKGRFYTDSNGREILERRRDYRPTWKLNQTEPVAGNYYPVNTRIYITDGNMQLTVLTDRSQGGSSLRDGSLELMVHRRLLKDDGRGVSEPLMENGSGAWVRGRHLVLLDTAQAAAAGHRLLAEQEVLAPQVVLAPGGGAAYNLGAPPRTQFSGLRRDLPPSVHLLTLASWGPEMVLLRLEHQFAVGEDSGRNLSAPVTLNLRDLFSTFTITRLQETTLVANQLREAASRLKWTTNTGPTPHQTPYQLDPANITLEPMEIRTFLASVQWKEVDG

[6] = molecular target: T2, Alpha-glucosidase (Apis mellifera); assay: Inhibition of family 13 alpha-glucosidase isoform I from honey bee; conditions: concentration not given here
[7] = Inhibitory concentration of Bacillus stearothermophilus glucosidase (of family 13 alpha-glucosidase) at 1 umol/mL; parameters: species or system Geobacillus stearothermophilus
[8] = Competitive Inhibition constant for Bacillus stearothermophilus glucosidase; parameters: species or system Geobacillus stearothermophilus

Work on `O=C(CO)NCC1OC(CO)C(O)C(O)C1O` (stereo not drawn) yielded an IC50 [1] of 851 µM.
With `O=C(CCO)NCC1OC(CO)C(O)C(O)C1O` (stereo not drawn) the inhibition [2] was < 1%.
Work on `O=C(NCC1OC(CO)C(O)C(O)C1O)c1ccccc1` (stereo not drawn) yielded an inhibition [3] of 12.3% and an inhibition [4] of 18.2%.
With `O=C(CCCO)NCC1OC(CO)C(O)C(O)C1O` (stereo not drawn) the inhibition [5] was < 1% and the inhibition [6] was < 1%.
`O=C(CCCCO)NCC1OC(CO)C(O)C(O)C1O` (stereo not drawn) showed an IC50 [7] of 415 µM and a Ki [8] of 580 µM.
